This is an account of results in patent publication US20240317727A1 (Duke University, priority 2018, published 2024).

The structures appear in SMILES notation.

Type in all cases: cell-based
The subject of test [1] is K-562. The experiment in a line: NCI60 cell growth and viability: K-562. Conditions: K-562, Leukemia, two days.
Test [2] relates to HOP-92. The experiment in a line: NCI60 cell growth and viability: HOP-92. Conditions: HOP-92, Non-Small Cell Lung Cancer, two days.
The subject of test [3] is SW-620. The experiment in a line: NCI60 cell growth and viability: SW-620. Conditions: SW-620, Colon Cancer, two days.
The subject of test [4] is SF-539. The experiment in a line: NCI60 cell growth and viability: SF-539. As to conditions: SF-539, CNS Cancer, two days.
Test [5] deals with LOX IMVI. The experiment in a line: NCI60 cell growth and viability: LOX IMVI. Conditions: Melanoma, two days.
The subject of test [6] is RXF 393. The test can be described thus: NCI60 cell growth and viability: RXF 393. As to conditions: RXF 393, Renal Cancer, two days.
For test [7], the system named is PC-3. The test can be described thus: NCI60 cell growth and viability: PC-3. Conditions: PC-3, Prostate Cancer, two days.
Where [8] appears, read: Homo sapiens, 48 h, read-out: log10 [GI50 (M)] (converted).
[9] abbreviates: Homo sapiens, 48 h, read-out: log10 [LC50 (M)] (converted).

One may read the GI50 as the concentration giving 50% growth inhibition.

Regarding `O=C(Nc1ccc(F)cc1)Nc1ccc(Cl)c([N+](=O)[O-])c1` [Compound 0017, 1-(4-chloro-3-nitrophenyl)-3-(4-fluorophenyl)urea], the 50% growth inhibitory concentration (GI50) was 3.24e-06 M in test [1] (Homo sapiens, K562, 48 h, read-out: log10 [GI50 (M)] (converted)); 2.04e-06 M in test [2] (setting [8]); 3.47e-06 M in test [3] (setting [8]); 3.89e-06 M in test [4] (setting [8]); 3.55e-06 M in test [5] (setting [8]); 1.74e-06 M in test [6] (setting [8]). In test [7] (setting [8]), the GI50 is 1.58e-06 M. In addition, the CC50 was at least 0.0001 M in test [1] (Homo sapiens, K562, 48 h, read-out: log10 [LC50 (M)] (converted)); 2.69e-05 M in test [2] (setting [9]); 4.79e-05 M in test [3] (setting [9]); 4.07e-05 M in test [4] (setting [9]); 4.07e-05 M in test [5] (setting [9]); 2.82e-05 M in test [6] (setting [9]). Further, the CC50 in test [7] (setting [9]) was 4.37e-05 M. The “log10 [TGI (M)]” value in test [1] is −4.00 log10 M; in test [2], −5.21 log10 M; in test [3] it was −4.86 log10 M; in test [4], −4.84 log10 M; in test [5] it was −4.91 log10 M; in test [6], −5.17 log10 M. Also, the “log10 [TGI (M)]” value in test [7] was −4.95 log10 M.
